From ChEMBL document CHEMBL1201862, “PubChem BioAssay data set” (2004) come the findings set out here.

Assay in all cases: growth of human tumour cells (NCI), 48 h
For test [1], the system named is UO-31.
Test [2] has as its system TK-10.
Test [3] deals with NCI-H23.
Test [4] relates to Hs-578T.
The test system of test [5] is SF-268.
Test [6] deals with PC-3.
For test [7], the system named is NCI-H226.
The test system of test [8] is KM12.
In test [9] the test system is NCI-H522.
Test [10] concerns ACHN.
Test [11] relates to A498.
Test [12] relates to NCI/ADR-RES.
Test [13] concerns HOP-62.
Test [14] deals with U-251.
Test [15] concerns OVCAR-3.
In test [16] the test system is HCC 2998.
Test [17] has as its system MDA-MB-435.
Test [18] has as its system RPMI-8226.
Test [19] has as its system CCRF-CEM.
In test [20] the test system is MOLT-4.

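Compound exposure: 48 hours, 5 concentrations, 96-well plates. GI50: concentration for 50% inhibition of growth.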 Calls of active or inactive are those of the source. No stated cut-off is given here; in the data, active = GI50 up to about 1.1 µM and inactive = higher. Positions of bridges follow the written chain, without caps; N, C: chain ends. Non-standard residues stand in square brackets, D forms with d. Residues, ends and D or L forms follow the SMILES beside them. *: point of attachment. PhAc = O=C(Cc1ccccc1)*

Regarding `O=C(O)CCc1nc(-c2ccccc2-n2cccc2)no1`, the GI50 in [1], in test [2], in test [3], in test [4], in test [5] and in test [6] was > 100 µM (inactive) in each case. Also, the GI50 in test [7] is > 100 µM (inactive); in test [8], 5.89 µM (inactive); in [9], 31 µM (inactive); in [10] it was > 100 µM (inactive); in [11] it was > 100 µM (inactive); in test [12], > 100 µM (inactive). The GI50 is > 100 µM (inactive) in test [13]; > 100 µM (inactive) in test [14]; 29 µM (inactive) in test [15]; > 100 µM (inactive) in test [16]; 16.6 µM (inactive) in test [17]; > 100 µM (inactive) in test [18].

Regarding `O=C1Nc2ccccc2/C1=N/NC(=S)Nc1cccc(Cl)c1`, the GI50 is 19.5 µM (inactive) in test [1]; 31.4 µM (inactive) in [2]; 6.97 µM (inactive) in [3]; 33.4 µM (inactive) in [4]; 2.75 µM (inactive) in [19]; 4.53 µM (inactive) in [5]. Further, the GI50 in test [6] was 8.02 µM (inactive); in test [7], 18 µM (inactive); in [8], 7.26 µM (inactive); in [9], 21.9 µM (inactive); in test [10], 6.34 µM (inactive); in [11], 4.03 µM (inactive). Besides, the GI50 in test [12] is 2.37 µM (inactive); in test [13] it was 10.9 µM (inactive); in [20], 0.614 µM (active); in test [14], 10.8 µM (inactive); in test [15] it was 2.68 µM (inactive); in test [16] it was 66.4 µM (inactive). In addition, in [17], the GI50 is 17.7 µM (inactive).

Take `O=C(c1ccccc1)n1c(Cc2ccccc2)nc2cc(C34CC5CC(CC(C5)C3)C4)ccc21`: the GI50 is 35.2 µM (inactive) in test [1]; > 100 µM (inactive) in [2]; 27.4 µM (inactive) in test [3]; > 100 µM (inactive) in test [4]; 50.5 µM (inactive) in test [19]; > 100 µM (inactive) in [5]. Besides, the GI50 was 49 µM (inactive) in test [6]; 58.3 µM (inactive) in [7]; 69.7 µM (inactive) in test [8]; 37.3 µM (inactive) in test [9]; 34.8 µM (inactive) in test [10]; 62.1 µM (inactive) in test [11]. In addition, the GI50 in test [12] is 31.8 µM (inactive); in test [13], 56.4 µM (inactive); in [20], 35.9 µM (inactive); in test [14] it was 44.6 µM (inactive); in test [16], 77.3 µM (inactive); in test [17], 92 µM (inactive). Moreover, the GI50 in [18] was 31.8 µM (inactive).

Regarding `CC(C)C(=O)NCC[C@@H](CNC(=O)OC(C)(C)C)NC(=O)OC(C)(C)C`, the GI50 in [1], in test [2], in [3], in test [4], in test [19] and in test [5] was > 100 µM (inactive) in each case. The GI50 in test [6], in test [7], in test [8], in test [9], in [10] and in test [11] was > 100 µM (inactive) throughout. Also, the GI50 in test [12], in [13], in test [20], in [14], in [15] and in test [16] was > 100 µM (inactive) throughout. The GI50 in test [17] was > 100 µM (inactive).

With `Cc1cc(Cl)nc(Nc2nc3ccccc3[nH]2)n1`, the GI50 in test [1] is > 100 µM (inactive); in [2], > 100 µM (inactive); in [3], > 100 µM (inactive); in [4], 40.1 µM (inactive); in test [19], > 100 µM (inactive); in test [5] it was > 100 µM (inactive). In addition, the GI50 in test [6] was > 100 µM (inactive); in test [7], > 100 µM (inactive); in [9] it was 2.96 µM (inactive); in test [10] it was > 100 µM (inactive); in test [11] it was > 100 µM (inactive); in test [12], > 100 µM (inactive). Moreover, the GI50 in [13], in test [14], in test [15], in test [16] and in [17] was > 100 µM (inactive) in each case.

As for `Cc1ccc(S(=O)(=O)n2cc(-c3cnc(N)c(Br)n3)c3ccccc32)cc1`, the GI50 in test [1] is 4.18 µM (inactive); in [2] it was 11.4 µM (inactive); in test [3] it was 1.56 µM (inactive); in test [4], 0.863 µM (active); in test [5] it was 2.96 µM (inactive); in [6], 2.92 µM (inactive). For the same compound, the GI50 in [7] was 31.2 µM (inactive); in test [8] it was 1.36 µM (inactive); in test [10], 5.46 µM (inactive); in [11] it was 2.68 µM (inactive); in [12], 2.04 µM (inactive); in [13], 6.73 µM (inactive). The GI50 in [20] was 0.977 µM (active); in test [14] it was 0.902 µM (active); in test [15] it was 1.02 µM (active); in [16], 3.29 µM (inactive); in test [17], 0.238 µM (active); in test [18] it was 1.78 µM (inactive).

Turning to `O=c1c2ccccc2[se]n1-c1cccnc1`, the GI50 in test [1] was 35.2 µM (inactive); in test [2] it was 24.2 µM (inactive); in [3], 21.4 µM (inactive); in test [4] it was 20.1 µM (inactive); in [5] it was 27 µM (inactive); in test [6], 22.3 µM (inactive). Moreover, the GI50 in test [7] was 28.4 µM (inactive); in [8] it was 79.3 µM (inactive); in test [9], 20.7 µM (inactive); in test [10], 28.1 µM (inactive); in [11], 24.7 µM (inactive); in test [12], 33.5 µM (inactive). Besides, the GI50 in test [13] is 24.9 µM (inactive); in test [20], 31.3 µM (inactive); in test [14], 26.7 µM (inactive); in test [15], 29.1 µM (inactive); in test [16], 11.4 µM (inactive); in test [17] it was 22.2 µM (inactive). Besides, the GI50 in [18] is 34.5 µM (inactive).

For `CC(C)(C)OC(=O)NC(Cc1ccc(OCc2ccccc2)cn1)C(=O)N1CCSCC1` (stereo not given), the GI50 in [1] was 50.6 µM (inactive); in test [2], 47.3 µM (inactive); in test [3] it was 28.6 µM (inactive); in test [4], 77.3 µM (inactive); in test [19] it was 29.9 µM (inactive); in test [5] it was 65.3 µM (inactive). The GI50 in test [6] is 31.4 µM (inactive); in [8], 36.4 µM (inactive); in test [9] it was 32.9 µM (inactive); in test [10], 57.3 µM (inactive); in test [11] it was 45.4 µM (inactive); in test [12], 27.7 µM (inactive). In addition, the GI50 in [13] is > 100 µM (inactive); in test [20], 22.9 µM (inactive); in test [14] it was 74.3 µM (inactive); in test [15] it was 62.2 µM (inactive); in [16], 57.8 µM (inactive); in test [17], 28.6 µM (inactive). For the same compound, in test [18], the GI50 is 21.7 µM (inactive).

On to `COc1ccc2nc(-c3ccc(OC(=O)N(C)C)cc3)cn2c1`, for which the GI50 in test [2] is > 100 µM (inactive); in [3] it was > 100 µM (inactive); in [4], > 100 µM (inactive); in test [19], 67.5 µM (inactive); in [5], > 100 µM (inactive); in [6], > 100 µM (inactive). Further, the GI50 was > 100 µM (inactive) in test [7]; 86.1 µM (inactive) in test [8]; 36 µM (inactive) in test [9]; > 100 µM (inactive) in [10]; > 100 µM (inactive) in test [11]; > 100 µM (inactive) in test [12]. The GI50 is > 100 µM (inactive) in test [13]; 82 µM (inactive) in test [20]; > 100 µM (inactive) in test [14]; > 100 µM (inactive) in [15]; > 100 µM (inactive) in test [16]; > 100 µM (inactive) in test [17].

On to `CC(C)(C)OC(=O)CN1C(=O)CC1CC(=O)c1ccccc1` (stereo not given), for which the GI50 in test [1] is 17.2 µM (inactive); in test [2], 30.2 µM (inactive); in [3], 18.5 µM (inactive); in test [4], 26.1 µM (inactive); in [5], 17.9 µM (inactive); in test [6] it was 17.2 µM (inactive). In addition, the GI50 in test [7] was 25.1 µM (inactive); in test [8], 20 µM (inactive); in test [9] it was 15.5 µM (inactive); in test [10], 21.2 µM (inactive); in test [11] it was 27.4 µM (inactive); in test [12] it was 35.1 µM (inactive). The GI50 in [13] was 17 µM (inactive); in [20] it was 4.39 µM (inactive); in test [14] it was 16 µM (inactive); in [15], 18.4 µM (inactive); in test [16], 23.5 µM (inactive); in test [17], 18.9 µM (inactive). Further, in test [18], the GI50 was 3.05 µM (inactive).

In the case of `O=C(Cc1ccccc1)N[C@@H]1COC(=O)[C@@H]2CCCN2C(=O)[C@@H]2CCCN2C1=O` (PhAc-[dS]-Pro-Pro; ester 1-C), the GI50 in test [2], in [3], in test [4], in test [19], in [5] and in test [6] was > 100 µM (inactive) each time. For the same compound, the GI50 in test [8], in [10], in test [11], in test [12], in [13] and in [20] was > 100 µM (inactive) each time. Besides, the GI50 in test [15], in test [16] and in [17] was > 100 µM (inactive) each time.
